Assay results from patent US12161648B2, “Covalent targeting of E3 ligases” (The Regents of the University of California, priority 2018, dated 2024).
“Also recorded” adds a separate entry of the source. Each block holds one compound with its values, some of them ahead of it.

Tests used:
[1] = system: BRD4; assay: Cell based degrader assay, BRD4 levels by Western blotting in 231MFP cells; set-up: species or system human; details: for dose-response of BRD4 degradation: 12 h
Experimental: (§1) Cell based degrader assays. For assaying degrader activity, cells were seeded (500,000 for 231MFP cells, 300,000 for HeLa cells) into a 6 cm tissue culture dish (Corning) in 2.0-2.5 mL of media and allowed to adhere overnight. The following morning, media was replaced with complete media containing the desired concentration of compound diluted from a 1000× stock in DMSO. At the specified timepoint, cells were washed once with PBS on ice, before 150 uL of lysis buffer was added to the plate (10 mM sodium phosphate, 150 mM NaCl, 0.1% SDS, 0.5% sodium deoxycholate, 1% Triton X100). The cells were incubated in lysis buffer for 5 min before scraping and transfer to microcentrifuge tubes. The lysates were then frozen at −80 C or immediately processed for western blotting. To prepare for western blotting, the lysates were cleared with 20,000 g spin for 10 min and the resulting supernatants quantified via BCA assay. The lysates were normalized by dilution with PBS to match the lowest concentration lysate and appropriate amount of 4× Laemmli's reducing buffer added.
Western blotting. Antibodies to RNF4 (Proteintech, 17810-1-AP, 1:1000), GAPDH (Proteintech, 60004-1-IG, 1:5000), BRD4 (Abcam, Ab128874, 1:1000), and beta-actin (Proteintech Group Inc., 6609-1-IG, 1:7000) were obtained from the specified commercial sources and dilutions were prepared in 5% BSA/TBST at the specified dilutions.

[2] = target: T1, RNF4 (Homo sapiens, UniProt P78317); assay: Gel-based ABPP, competition against IA-rhodamine labeling of pure RNF4; format: binding; details: for IC50: read-out: 50% inhibitory concentration (IC50), IA-rhodamine labeling of RNF4, densitometry; for IC50 / hits from covalent ligand screen against IA-rhodamine labeling of RNF4: 30 min pre-incubation; for hits from covalent ligand screen against IA-rhodamine labeling of RNF4: covalent ligands 50 μM, IA-rhodamine 250 nM 1 h; for inhibition of IA-rhodamine labeling of RNF4: confirmation of screening hits
T1 construct: purchased Boston Biochem K-220
T1 sequence (P78317 1-190): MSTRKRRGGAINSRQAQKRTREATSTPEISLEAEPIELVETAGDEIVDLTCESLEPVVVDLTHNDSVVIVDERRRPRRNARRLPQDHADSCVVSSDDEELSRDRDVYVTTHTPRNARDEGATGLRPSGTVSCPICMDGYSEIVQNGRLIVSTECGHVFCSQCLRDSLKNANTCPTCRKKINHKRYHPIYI
Experimental: Gel-Based ABPP. Gel-based ABPP methods were performed as previously described^5,6,25,26. Pure recombinant human RNF4 was purchased from Boston Biochem (K-220). RNF4 (0.25 μg) was diluted into 50 μL of PBS and 1p L of either DMSO (vehicle) or covalently acting small molecule to achieve the desired concentration. After 30 minutes at room temperature, the samples were treated with 250 nM IA-Rhodamine (Setareh Biotech, 6222, prepared in anhydrous DMSO) for 1 h at room temperature. Samples were then diluted with 20 μL of 4× reducing Laemmli SDS sample loading buffer (Alfa Aesar) and heated at 90° C. for 5 min. The samples were separated on precast 4-20% Criterion TGX gels (Bio-Rad Laboratories, Inc.). Fluorescent imaging was performed on a ChemiDoc MP (Bio-Rad Laboratories, Inc) inhibition of target labeling was assessed by densitometry using ImageJ.

[3] = system: 231MFP breast cancer cells; assay: isoTOP-ABPP proteome-wide selectivity in 231MFP cells in situ; format: cell-based, human
Experimental: IsoTOP-ABPP chemoproteomic studies. IsoTOP-ABPP studies were done as previously reported^4,6,7,12. […] Proteomes were subsequently treated with IA-alkyne (100 μM, Chess GmbH, 3187) for 1 h at RT. […] Tryptic peptides were eluted off.
Mass Spectrometry Analysis.

[4] = system: human RNF114; assay: Gel-based ABPP, competition against JNS27 labeling of pure RNF114; format: binding; details: JNS27 50 μM
Experimental: (§2) Gel-Based ABPP. Gel-based ABPP methods were performed as previously described^34,62,63,67. Recombinant pure human proteins were purchased from Origene. […] CuAAC was performed to append rhodamine-azide (1 μM final concentration) onto alkyne probe-labeled proteins. Samples were then diluted with 20 μL of 4× reducing Laemmli SDS sample loading buffer (Alfa Aesar) and heated at 90° C. for 5 min. The samples were separated on precast 4-20% TGX gels (Bio-Rad Laboratories, Inc.). Prior to scanning by ChemiDoc MP (Bio-Rad Laboratories, Inc), gels were fixed in a solution of 10% acetic acid, 30% ethanol for 2 hrs. Inhibition of target labeling was assessed by densitometry using ImageJ.
as §2, with “described^14.” for “described^34,62,63,67.”

[5] = target: T2, RNF114 (Homo sapiens, UniProt Q9Y508); assay: Nimbolide-alkyne labeling of RNF114 in 231MFP cells in situ; format: cell-based
T2 construct: Myc; FLAG; purchased Origene
T2 sequence (Q9Y508 whole entry): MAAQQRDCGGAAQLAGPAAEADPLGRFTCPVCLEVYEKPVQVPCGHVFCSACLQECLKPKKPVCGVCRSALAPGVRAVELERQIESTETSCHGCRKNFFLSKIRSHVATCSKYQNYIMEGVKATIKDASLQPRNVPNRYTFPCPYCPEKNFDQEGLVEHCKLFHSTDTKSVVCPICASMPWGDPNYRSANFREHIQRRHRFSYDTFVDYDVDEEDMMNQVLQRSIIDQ
Experimental: Biotin-azide was appended to probe-labeled proteins by CuAAC, and these proteins were subsequently avidin-enriched. Resulting pulled down proteins were analyzed by SDS/PAGE and Western blotting for RNF114. Gels shown in FIGS. 21C-21F are representative gels from n=3 biologically independent samples/group.

[6] = system: 231MFP cells; assay: Quantitative proteomic profiling of proteins enriched by the nimbolide-alkyne probe in 231MFP cells; format: cell-based, human; details: in situ labeling of 231MFP cells
[7] = target: T3, BRD4 (Homo sapiens, UniProt O60885); assay: BRD4 degradation in RNF4 wild-type and knockout HeLa cells; format: cell-based; details: 10 μM 5 h
T3 construct: endogenous in cells; host or cells: HeLa cells, RNF4 wild-type and RNF4 knockout
Experimental: Cell Culture. The 231MFP cells were obtained from Prof. Benjamin Cravatt and were generated from explanted tumor xenografts of MDA-MB-231 cells as previously described^27. RNF4 knockout HeLa cells were purchased from EdiGene USA (CL0033025003A). RNF4 wild-type HeLa cells were provided by EdiGene USA or the UC Berkeley Cell Culture Facility. 231MFP cells were cultured in L-15 media (Corning) containing 10% (v/v) fetal bovine serum (FBS) and maintained at 37° C. with 0% CO2. HeLa cells were cultured in DMEM media (Corning) containing 10% (v/v) fetal bovine serum (FBS) and maintained at 37° C. with 5% CO2.
as §1, with “The cells were incubated in lysis buffer for 5 min before scraping and transfer to microcentrifuge tubes. The lysates were then frozen at −80 C or immediately processed for western blotting.” left out, “The lysates were normalized by dilution with PBS to match the lowest concentration lysate and appropriate amount of 4× Laemmli's reducing buffer added.” left out

[8] = system: 231MFP breast cancer cells; assay: TMT-based quantitative proteomic profiling of 231MFP cells; format: cell-based, human; details: 100 nM, 12 h
Source text: Data shown in (FIG. 22F) are for 6397 proteins quantified with 2 or more unique peptides in n=3 biologically independent samples/group.
Data shown in FIG. 23I are for 5797 proteins quantified with 2 or more unique peptides in triplicate treatments.

[9] = system: BRD4; assay: BRD4 degradation in RNF114 wild-type and knockout HAP1 cells; format: cell-based, human
[10] = system: 231MFP breast cancer cell proteomes; assay: Gel-based ABPP of general cysteine-reactivity in 231MFP lysates; format: binding, human; details: IA-rhodamine 250 nM
Experimental: FIG. 5. Additional hits against RNF4 and general assessment of proteome-wide selectivity of RNF4 hits by gel-based ABPP. Gel-based ABPP analysis of DKM 2-76 and TRH 1-74 against IA-rhodamine labeling of RNF4. Covalent ligands were pre-incubated with pure RNF4 protein for 30 min prior to IA-rhodamine labeling (250 nM) for 1 h. Proteins were subjected to SDS/PAGE and visualized by in-gel fluorescence. Gel-based ABPP screen of RNF4 hits YP 1-44 and TRH 1-23 against IA-rhodamine labeling in 231MFP breast cancer cell proteomes. YP 1-44 and TRH 1-23 were pre-incubated with proteome for 30 min prior to IA-rhodamine labeling (250 nM) for 1 h. Proteins were subjected to SDS/PAGE and visualized by in-gel fluorescence.

Structure (SMILES): COC(=O)C[C@H]1[C@]2(C)C3=C(C)[C@H](c4ccoc4-c4ccc(C(=O)NCCOCCOCCOCCNC(=O)C[C@@H]5N=C(c6ccc(Cl)cc6)c6c(sc(C)c6C)-n6c(C)nnc65)cc4)C[C@H]3O[C@@H]2[C@@H]2OC(=O)[C@]3(C)C=CC(=O)[C@@]1(C)[C@@H]23 [XH1]
- BRD4 degradation ([1]; 231MFP cells, 12 h treatment): did not show appreciable BRD4 degradation

Structure (SMILES): C#CCC1CCC=CC1=O (stereo not shown) [JNS27, reference compound]
- probe labeling of RNF114, wild-type versus C8A mutant [4]: selective labeling of C8 on RNF114

Structure (SMILES): Cc1sc2c(c1C)C(c1ccc(Cl)cc1)=N[C@@H](CC(=O)NCCCCOc1ccc(Oc3ccc(N(Cc4ccccc4)C(=O)CCl)cc3)cc1)c1nnc(C)n1-2 [CCW 28-3, (S)—N-benzyl-2-chloro-N-(4-(4-(4-(2-(4-(4-chlorophenyl)-2,3,9-trimethyl-6H-thieno[3,2-f][1,2,4]triazolo[4,3-a][1,4]diazepin-6-yl)acetamido)butoxy)phenoxy)phenyl)acetamide]
- IC50 [2]: 540 nM
- BRD4 degradation compared with MZ1 [1]: does not degrade BRD4 as well as
- BRD4 degradation ([1]; 231MFP cells, 3 h): leads to BRD4 degradation; also recorded: degrades BRD4 in a dose-responsive manner
- BRD4 degradation after pre-treatment with bortezomib (BTZ), JQ1 or TAK-243 ([1]; 231MFP, inhibitors 10 μM 30 min, degrader 1 μM 3 h): prevented
- BRD4 degradation in RNF4 knockout cells ([7]; RNF4 knockout HeLa): not evident
- BRD4 degradation in HeLa control cells ([7]; RNF4 wild-type): observed
- selectivity for RNF4 in cells [3]: not yet completely selective
- off-targets part of the ubiquitin-proteasome system ([3]; 10 μM in situ): none of these off-targets of CCW 28-3 are part of the ubiquitin-proteasome system
- targets with isotopically light to heavy ratios greater than 4 out of 1114 total quantified probe-modified peptides ([3]; 10 μM in situ 1 h, IA-alkyne 100 μM): 7

Structure (SMILES): COC(=O)C[C@H]1[C@]2(C)C3=C(C)[C@H](c4ccoc4-c4ccc(C(=O)NCCCNC(=O)C[C@@H]5N=C(c6ccc(Cl)cc6)c6c(sc(C)c6C)-n6c(C)nnc65)cc4)C[C@H]3O[C@@H]2[C@@H]2OC(=O)[C@]3(C)C=CC(=O)[C@@]1(C)[C@@H]23 [XH2]
- time to BRD4 degradation ([1]; 231MFP cells, 100 nM): ≤ 12 h
- dose-response of BRD4 degradation ([1]; 231MFP cells): less degradation at 1 μM compared to 0.1 and 0.01 μM
- BRD4 degradation ([1]; 231MFP cells, 12 h treatment): led to BRD4 degradation
- BRD4 degradation with proteasome inhibitor bortezomib (BTZ) ([1]; 231MFP, BTZ 1 μM, degrader 100 nM 12 h): attenuated
- BRD4 degradation with TAK-243 or pre-competing JQ1 ([1]; 231MFP, TAK-243 10 μM or JQ1 1 μM, degrader 100 nM 12 h): prevented; also recorded: attenuated
- BRD4 degradation with translation inhibitor emetine ([1]; 231MFP, emetine 75 μM, degrader 100 nM 12 h): had no effect
- BRD2 and BRD3 levels [8]: sparing the other identified BET family members BRD2 and BRD3
- selectivity of protein degradation, BRD4 [8]: selectively degrades BRD4
- BRD4 degradation after re-expression of wild-type RNF114 in HAP1 RNF114 knockout cells [9]: restoration of BRD4 degradation
- BRD4 degradation in RNF114 knockout (KO) HAP1 cells ([9]; 100 nM, 12 h): not observed

Structure (SMILES): Cc1ncsc1-c1ccc(CNC(=O)[C@@H]2C[C@@H](O)CN2C(=O)[C@@H](NC(=O)COCCOCCOCCNC(=O)C[C@@H]2N=C(c3ccc(Cl)cc3)c3c(sc(C)c3C)-n3c(C)nnc32)C(C)(C)C)cc1 [MZ1, reference compound]
- dose-response of BRD4 degradation ([1]; 231MFP cells): less degradation at 20 μM compared to 10, 1, and 0.1 μM; also recorded: better BRD4 degradation at 1 and 0.1 μM, and equivalent degradation to XH2 at 10 nM

The next lines start with results.

- reduced IA-rhodamine labeling of RNF4 observed down to [2]: 1 µM
- IC50 [2]: 1800 nM
Structure (SMILES): COc1ccc(Oc2ccc(N(Cc3ccccc3)C(=O)CCl)cc2)cc1 [CCW16, N-benzyl-2-chloro-N-(4-(4-methoxyphenoxy)phenyl)acetamide]
- selectivity for RNF4 in cells [3]: not yet completely selective

- hits from covalent ligand screen against IA-rhodamine labeling of RNF4 [2]: potential hits
Structure (SMILES): C=CC(=O)NC1Cc2ccccc2C1 [TRH 1-74]

- in situ probe labeling of Flag-tagged RNF114 observed down to ([5]; 231MFP cells expressing Flag-RNF114, 2 h): 100 nM
- pulldown of endogenous RNF114 ([5]; 231MFP cells, 50 μM probe, 1.5 h): significant pulldown
Structure (SMILES): C#CCNC(=O)c1ccc(-c2occc2[C@@H]2C[C@H]3O[C@@H]4[C@@H]5OC(=O)[C@]6(C)C=CC(=O)[C@](C)([C@@H](CC(=O)OC)[C@]4(C)C3=C2C)[C@@H]56)cc1 [nimbolide-alkyne probe]
- additional proteins enriched by >10-fold compared to no-probe controls [6]: 114
- enrichment of RNF114 compared to no-probe controls [6]: > 10 fold

- hits from covalent ligand screen against IA-rhodamine labeling of RNF4 [2]: potential hits
Structure (SMILES): CC(CCc1ccccc1)NC(=O)CCl (stereo not shown) [DKM 2-76]

- hits from covalent ligand screen against IA-rhodamine labeling of RNF4 [2]: potential hits
- silver staining of RNF4 ([2]; gel-based ABPP gels silver stained): may be causing protein precipitation
Structure (SMILES): O=C(CCl)Nc1cccc2cnccc12 [TRH 1-163, 2-Chloro-N-(isoquinolin-5-yl)acetamide]
- inhibition of IA-rhodamine labeling of RNF4 [2]: reproducible and dose-responsive inhibition

- hits from covalent ligand screen against IA-rhodamine labeling of RNF4 [2]: potential hits
Structure (SMILES): C=CC(=O)n1ccc2ccccc21 [YP 1-44, 1-(1H-indol-1-yl)prop-2-en-1-one]
- inhibition of IA-rhodamine labeling of RNF4 [2]: reproducible and dose-responsive inhibition
- selectivity, general cysteine-reactivity [10]: much less selective compared to TRH 1-23
